pIC50: −log10 of the molar value. Where “and” joins values, the source holds several entries; their conditions need not be identical. Identical values can stand only once.
Tested on: 349418-098-R-PDC complex spheroid viability
Assay: Anticancer human tumor 349418-098-R-PDC patient-derived lung adenocarcinoma cell line growth inhibition
Conditions: for viability, T/C: stronger effect = lower value
Procedure, shortened: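 Drug combinations with the LSD1 inhibitor iadademstat tested on tumor cells co-cultured as spheroids with endothelial cells and mesenchymal stem cells. Concentrations descended in half-log increments from clinical Cmax or 10 microM.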
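Further: spheroids exposed to agents for seven days before readout.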
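Wherever viability, T/C is given: 100% = DMSO vehicle control wells.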

Q: How did the pIC50 (curve of first compound, second compound 0.1 µM) turn out when `Nc1ccn(C2OC(CO)C(O)C2(F)F)c(=O)n1` (centres undefined) + NC1CCC(NC2CC2c2ccccc2)CC1 was run?
A: > 9.02

Q: What about the pIC50 (curve of first compound, second compound 0.316 µM) of the same compound?
A: > 9.02

Q: What about the pIC50 (curve of first compound, second compound 1 µM) of the same compound?
A: > 9.02

Q: And the pIC50 (curve of first compound, second compound 3.16 µM)?
A: > 9.02

Q: And the pIC50 (curve of first compound, second compound 10 µM)?
A: > 9.02

Q: And the viability, T/C (second compound 0.1 µM, first compound 0.000949 µM)?
A: 4.87%

Q: What about the viability, T/C (second compound 0.1 µM, first compound 0.003 µM) of the same compound?
A: 4.56%

Q: And the viability, T/C (second compound 0.1 µM, first compound 0.00949 µM)?
A: 4.21%

Q: And the viability, T/C (second compound 0.1 µM, first compound 0.03 µM)?
A: 3.79%

Q: What about the viability, T/C (second compound 0.1 µM, first compound 0.0949 µM) of the same compound?
A: 4%

Q: What about the viability, T/C (second compound 0.1 µM, first compound 0.3 µM) of the same compound?
A: 3.98%

Q: And the viability, T/C (second compound 0.316 µM, first compound 0.000949 µM)?
A: 4.61%

Q: What about the viability, T/C (second compound 0.316 µM, first compound 0.003 µM) of the same compound?
A: 4.85%

Q: What about the viability, T/C (second compound 0.316 µM, first compound 0.00949 µM) of the same compound?
A: 4.32%

Q: What about the viability, T/C (second compound 0.316 µM, first compound 0.03 µM) of the same compound?
A: 4.15%

Q: And the viability, T/C (second compound 0.316 µM, first compound 0.0949 µM)?
A: 4.03%

Q: And the viability, T/C (second compound 0.316 µM, first compound 0.3 µM)?
A: 3.47%

Q: And the viability, T/C (second compound 1 µM, first compound 0.000949 µM)?
A: 4.81%

Q: And the viability, T/C (second compound 1 µM, first compound 0.003 µM)?
A: 4.98%

Q: And the viability, T/C (second compound 1 µM, first compound 0.00949 µM)?
A: 5.25%

Q: What about the viability, T/C (second compound 1 µM, first compound 0.03 µM) of the same compound?
A: 4.25%

Q: And the viability, T/C (second compound 1 µM, first compound 0.0949 µM)?
A: 3.86%

Q: What about the viability, T/C (second compound 1 µM, first compound 0.3 µM) of the same compound?
A: 3.77%

Q: And the viability, T/C (second compound 3.16 µM, first compound 0.000949 µM)?
A: 5.14%

Q: And the viability, T/C (second compound 3.16 µM, first compound 0.003 µM)?
A: 4.79%

Q: What about the viability, T/C (second compound 3.16 µM, first compound 0.00949 µM) of the same compound?
A: 5.19%

Q: What about the viability, T/C (second compound 3.16 µM, first compound 0.03 µM) of the same compound?
A: 4.55%

Q: And the viability, T/C (second compound 3.16 µM, first compound 0.0949 µM)?
A: 4.08%

Q: What about the viability, T/C (second compound 3.16 µM, first compound 0.3 µM) of the same compound?
A: 3.79%

Q: And the viability, T/C (second compound 10 µM, first compound 0.000949 µM)?
A: 4.89%

Q: And the viability, T/C (second compound 10 µM, first compound 0.003 µM)?
A: 5.31%

Q: And the viability, T/C (second compound 10 µM, first compound 0.00949 µM)?
A: 4.83%

Q: And the viability, T/C (second compound 10 µM, first compound 0.03 µM)?
A: 4.8%

Q: What about the viability, T/C (second compound 10 µM, first compound 0.0949 µM) of the same compound?
A: 4.86%

Q: And the viability, T/C (second compound 10 µM, first compound 0.3 µM)?
A: 3.79%

Q: `Cn1ncnc1C1c2n[nH]c(=O)c3cc(F)cc(c23)NC1c1ccc(F)cc1` (centres undefined) was tested. Which viability, T/C (compound 0.000316 µM) did it give?
A: 97.2% and 97.6%

Q: And the viability, T/C (compound 0.001 µM)?
A: 93.6% and 102%

Q: What about the viability, T/C (compound 0.00316 µM) of the same compound?
A: 101% and 98.2%

Q: What about the viability, T/C (compound 0.01 µM) of the same compound?
A: 94.4% and 94.1%

Q: And the viability, T/C (compound 0.0316 µM)?
A: 97.8% and 78.5%

Q: And the viability, T/C (compound 0.1 µM)?
A: 89% and 77.8%

Q: And the pIC50 (curve of compound)?
A: < 7.00

Q: With `Nc1ncn(C2CC(O)C(CO)S2)c(=O)n1` (centres undefined) as the compound, how does the viability, T/C (compound 0.000949 µM) read?
A: 104% and 92.4%

Q: What about the viability, T/C (compound 0.003 µM) of the same compound?
A: 84% and 91.7%

Q: What about the viability, T/C (compound 0.00949 µM) of the same compound?
A: 64.8% and 63.6%

Q: What about the viability, T/C (compound 0.03 µM) of the same compound?
A: 33.8% and 29.8%

Q: What about the viability, T/C (compound 0.0949 µM) of the same compound?
A: 16.8% and 11.8%

Q: What about the viability, T/C (compound 0.3 µM) of the same compound?
A: 8.91% and 5.28%

Q: And the pIC50 (curve of compound)?
A: 7.80 and 7.81

Source: PubChem BioAssay AID1918936 (Molecular Pharmacology Branch, DTP, NCI, 2023)
